Legend:
BT-474 [1] = assay: Antiproliferative activity against trastuzumab-sensitive HER2-positive human BT-474 cells assessed as cell viability at 10 uM after 72 hrs by MTS assay; assay type: functional; conditions: read-out: Activity
JIMT-1 [2] = assay: Antiproliferative activity against trastuzumab-resistant HER2-positive human JIMT-1 cells assessed as cell viability at 10 uM after 72 hrs by MTS assay; assay type: functional; conditions: read-out: Activity
HEK293 = assay: Cytotoxicity against human HEK293 cells assessed as reduction in cell viability at 10 uM after 72 hrs by MTS assay; assay type: cell-based; conditions: hek293, 72 h
BT-474 [3] = assay: Antiproliferative activity against trastuzumab-sensitive HER2-positive human BT-474 cells assessed as reduction in cell viability after 72 hrs by MTS assay; assay type: functional, cell-based; conditions: dose 0.1-20 µM
SK-BR-3 = assay: Antiproliferative activity against trastuzumab-sensitive human SK-BR-3 cells assessed as reduction in cell viability after 72 hrs by MTS assay; assay type: functional, cell-based; conditions: dose 0.1-20 µM
JIMT-1 [4] = assay: Antiproliferative activity against trastuzumab-resistant HER2-positive human JIMT-1 cells assessed as reduction in cell viability after 72 hrs by MTS assay; assay type: functional, cell-based; conditions: dose 0.1-20 µM
MDA-MB-453 = assay: Antiproliferative activity against trastuzumab-resistant human MDA-MB-453 cells assessed as reduction in cell viability after 72 hrs by MTS assay; assay type: functional, cell-based; conditions: dose 0.1-20 µM
Heat shock protein HSP90 [5] = molecular target: T1, Heat shock protein HSP90 (Homo sapiens, UniProt P07900+P08238); assay: Inhibition of HSP90 at N-terminus in human BT-474 cells assessed as increase in nuclear HSF1 protein level at 10 uM incubated for 24 hrs by immunostaining analysis; assay type: cell-based; conditions: bt-474, 24 h
Heat shock protein HSP90 [6] = molecular target: T1, Heat shock protein HSP90; assay: Inhibition of HSP90 at N-terminus in human BT-474 cells assessed as increase in cytosolic HSP90 protein level at 10 uM incubated for 24 hrs by immunostaining analysis; assay type: cell-based; conditions: bt-474, 24 h
Heat shock protein HSP90 [7] = molecular target: T1, Heat shock protein HSP90; assay: Inhibition of HSP90 at C-terminus in trastuzumab-sensitive human BT-474 cells assessed as downregulation of HER2 protein expression incubated for 72 hrs by Western blot analysis; assay type: cell-based; conditions: dose 2-10 µM
Heat shock protein HSP90 [8] = molecular target: T1, Heat shock protein HSP90; assay: Inhibition of HSP90 at C-terminus in trastuzumab-resistant human […] cells assessed as downregulation of HER2 protein expression incubated for 72 hrs by Western blot analysis; assay type: cell-based; conditions: JIMT-1, dose 2-10 µM
Heat shock protein HSP90 [9] = molecular target: T1, Heat shock protein HSP90; assay: Inhibition of HSP90 at C-terminus in trastuzumab-sensitive human BT-474 cells assessed as downregulation of Akt protein expression incubated for 72 hrs by Western blot analysis; assay type: cell-based; conditions: dose 2-10 µM
Heat shock protein HSP90 [10] = molecular target: T1, Heat shock protein HSP90; assay: Inhibition of HSP90 at C-terminus in trastuzumab-resistant human […] cells assessed as downregulation of Akt protein expression incubated for 72 hrs by Western blot analysis; assay type: cell-based; conditions: JIMT-1, dose 2-10 µM
Heat shock protein HSP90 [11] = molecular target: T1, Heat shock protein HSP90; assay: Inhibition of HSP90 at C-terminus in trastuzumab-sensitive human BT-474 cells assessed as downregulation of cyclinD1 protein expression incubated for 72 hrs by Western blot analysis; assay type: cell-based; conditions: dose 2-10 µM
Heat shock protein HSP90 [12] = molecular target: T1, Heat shock protein HSP90; assay: Inhibition of HSP90 at C-terminus in trastuzumab-resistant human […] cells assessed as downregulation of cyclinD1 protein expression incubated for 72 hrs by Western blot analysis; assay type: cell-based; conditions: JIMT-1, dose 2-10 µM
Heat shock protein HSP90 [13] = molecular target: T1, Heat shock protein HSP90; assay: Inhibition of HSP90 at C-terminus in trastuzumab-sensitive human BT-474 cells assessed as downregulation of survivin protein expression incubated for 72 hrs by Western blot analysis; assay type: cell-based; conditions: dose 2-10 µM
Heat shock protein HSP90 [14] = molecular target: T1, Heat shock protein HSP90; assay: Inhibition of HSP90 at C-terminus in trastuzumab-resistant human […] cells assessed as downregulation of survivin protein expression incubated for 72 hrs by Western blot analysis; assay type: cell-based; conditions: JIMT-1, dose 2-10 µM

## COc1cc2c(C(OC(=O)C3CC3)c3ccc4c(c3OC)C=CC(C)(C)O4)ccnc2cc1OCCCN1CCN(C)CC1 (configuration not stated)
BT-474 [1]
  viability at 10 µM: < 20%
JIMT-1 [2]
  viability at 10 µM: < 20%
HEK293
  Activity: Toxic
BT-474 [3]
  Activity: Dose-Dependent Effect
SK-BR-3
  Activity: Dose-Dependent Effect
JIMT-1 [4]
  Activity: Dose-Dependent Effect
MDA-MB-453
  Activity: Dose-Dependent Effect
Heat shock protein HSP90 [5]
  inhibition (INH): Not Active
Heat shock protein HSP90 [6]
  inhibition (INH): Not Active
Heat shock protein HSP90 [7]
  inhibition: Dose-Dependent Effect
Heat shock protein HSP90 [8]
  inhibition: Dose-Dependent Effect
Heat shock protein HSP90 [9]
  inhibition: Dose-Dependent Effect
Heat shock protein HSP90 [10]
  inhibition: Dose-Dependent Effect
Heat shock protein HSP90 [11]
  inhibition: Dose-Dependent Effect
Heat shock protein HSP90 [12]
  inhibition: Dose-Dependent Effect
Heat shock protein HSP90 [13]
  inhibition: Dose-Dependent Effect
Heat shock protein HSP90 [14]
  inhibition: Dose-Dependent Effect
